Earlier results in patent US12702690B2, “Cannabinoid compositions and dosage forms for intranasal or inhalational delivery” (RHODES TECHNOLOGIES, priority 2020, dated 2026).

Key:
[1] = following ingestion; Sharma et al. 2012
[2] = background statement

## CCCCCc1cc(O)c2c(c1)OC(C)(C)C1CCC(C)=CC21 (single isomer, unassigned; (-)) [Dronabinol, (−)-trans-Δ^9-tetrahydrocannabinol]
[1]
  time at which systemic absorption peaks: 1 to 2 h
[2]
  solubility in water: insoluble in water
